In patent US9957274B2, “Indane inhibitors of EED and methods of their use” (AbbVie Inc., priority 2016, dated 2018):
Read-outs that look alike come from different tables or passages of the source.

What was measured:
EED = EED (Homo sapiens, UniProt O75530); assay: EED TR-FRET Binding Assay (modified LanthaScreen competition assay)
Description: Compounds were tested in a modified LanthaScreen competition assay.
The following buffer was used to set up the binding reactions: 20 mM Tris-HCl pH 7.5, 200 mM NaCl, 0.01% Tween-20, 10 uM DTT (dithiothreitol), and 0.05% BSA (bovine serum albumin), with the DTT and BSA added fresh prior to initiating the binding assay. […] The reactions were then incubated for 1 hour at 25° C. in a humidified chamber prior to detection on the Perkin Elmer Envision plate reader using a Lanthascreen TR-FRET protocol.

Pfeiffer cells = assay: CTG cell viability assay (CellTiter-Glo); assay type: cell-based; details: Homo sapiens, 240 h
Description: 1,000 cells were plated into each well of 96-well Corning CellBing cell culture plates and incubated overnight at 37° C. in a humidified CO2 incubator. […] The cell culture plates were then incubated for 10 more days. CTG cell viability assay was performed on the cell culture samples by using CellTiter-Glo® Luminescent Cell Viability Assay Kit (Promega).

[1] = Pfeiffer cells, 10 days with compound, CellTiter-Glo, read-out: Cell Proliferation IC50

Chain of EED (O75530 whole entry): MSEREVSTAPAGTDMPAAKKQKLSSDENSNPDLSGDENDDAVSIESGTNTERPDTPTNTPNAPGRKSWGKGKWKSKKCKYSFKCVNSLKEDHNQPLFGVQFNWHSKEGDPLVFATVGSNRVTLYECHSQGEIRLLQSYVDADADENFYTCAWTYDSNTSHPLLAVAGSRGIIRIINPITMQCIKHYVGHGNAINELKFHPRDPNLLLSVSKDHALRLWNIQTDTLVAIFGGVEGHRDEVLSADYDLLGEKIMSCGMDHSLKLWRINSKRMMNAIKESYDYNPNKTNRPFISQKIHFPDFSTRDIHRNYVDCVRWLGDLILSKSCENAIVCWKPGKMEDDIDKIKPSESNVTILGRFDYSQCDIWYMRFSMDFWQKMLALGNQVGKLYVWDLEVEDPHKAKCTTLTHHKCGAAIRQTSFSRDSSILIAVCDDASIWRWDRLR

| SMILES | IC50 (EED) | IC50 (Pfeiffer cells; [1]) | IC50 (Pfeiffer cells; Pfeiffer, read-out: Cell Proliferation IC50 (uM)) |
| --- | --- | --- | --- |
| CC(=O)N1CCN(c2ccc([C@H]3CN([C@@H]4CCc5cccc(F)c54)C[C@@H]3N(C)C)cc2)CC1 [Example 46, 1-[4-(4-{(3S,4R)-4-(dimethylamino)-1-[(1R)-7-fluoro-2,3-dihydro-1H-inden-1-yl]pyrrolidin-3-yl}phenyl)piperazin-1-yl]ethan-1-one] | 3.36 nM | – | 1.01 µM |
| CN(C)[C@H]1CN(C2C[C@H](F)c3cccc(F)c32)C[C@@H]1c1ccc(S(C)(=O)=O)cc1 (mixture of isomers) [Example 30, rac-(3R,4S)-1-[(3S)-3,7-difluoro-2,3-dihydro-1H-inden-1-yl]-4-[4-(methanesulfonyl)phenyl]-N,N-dimethylpyrrolidin-3-amine] | 11.4 nM | 3.1 µM | – |
| CN(C)[C@H]1CN(C2CCc3cccc(F)c32)C[C@@H]1c1cn(C)c2c(C(=O)NC3CCS(=O)(=O)C3)cccc12 (mixture of isomers) [Example 115, rac-3-[(3S,4R)-4-(dimethylamino)-1-(7-fluoro-2,3-dihydro-1H-inden-1-yl)pyrrolidin-3-yl]-N-(1,1-dioxo-1lambda~6~-thiolan-3-yl)-1-methyl-1H-indole-7-carboxamide] | 1.73 nM | 0.224 µM | – |
| CN(CCO)C(=O)c1cccc2c([C@H]3CN(C4CCc5cccc(F)c54)C[C@@H]3N(C)C)cn(C)c12 (mixture of isomers) [Example 98, rac-3-[(3S,4R)-4-(dimethylamino)-1-(7-fluoro-2,3-dihydro-1H-inden-1-yl)pyrrolidin-3-yl]-N-(2-hydroxyethyl)-N,1-dimethyl-1H-indole-7-carboxamide] | 1.37 nM | 0.126 µM | – |
| CN(C)[C@H]1CN(C2CCc3cccc(F)c32)C[C@@H]1c1cn(C)c2c(C(=O)NC3CC(O)C3)cccc12 (mixture of isomers) [Example 108, rac-3-[(3S,4R)-4-(dimethylamino)-1-(7-fluoro-2,3-dihydro-1H-inden-1-yl)pyrrolidin-3-yl]-N-(3-hydroxycyclobutyl)-1-methyl-1H-indole-7-carboxamide] | 1.5 nM | 0.152 µM | – |
| CN(C(=O)c1cccc2c([C@H]3CN(C4CCc5cccc(F)c54)C[C@@H]3N(C)C)cn(C)c12)C1CC(O)C1 (mixture of isomers) [Example 109, rac-3-[(3S,4R)-4-(dimethylamino)-1-(7-fluoro-2,3-dihydro-1H-inden-1-yl)pyrrolidin-3-yl]-N-(3-hydroxycyclobutyl)-N,1-dimethyl-1H-indole-7-carboxamide] | 1.6 nM | 0.141 µM | – |
| Cc1nnc(-c2ccc([C@@H]3CN(C4CCc5cccc(F)c54)C[C@H]3N(C)C)cc2)o1 (mixture of isomers) [Example 68, rac-(3S,4R)-1-(7-fluoro-2,3-dihydro-1H-inden-1-yl)-N,N-dimethyl-4-[4-(5-methyl-1,3,4-oxadiazol-2-yl)phenyl]pyrrolidin-3-amine] | 2.37 nM | 0.491 µM | – |
| Cc1noc(-c2ccc([C@H]3CN(C4CCc5cccc(F)c54)C[C@@H]3N(C)C)cc2)n1 (mixture of isomers) [Example 67, rac-(3R,4S)-1-(7-fluoro-2,3-dihydro-1H-inden-1-yl)-N,N-dimethyl-4-[4-(3-methyl-1,2,4-oxadiazol-5-yl)phenyl]pyrrolidin-3-amine] | 3.06 nM | 1.63 µM | – |
| CNC(=O)c1cccc2c([C@H]3CN(C4CCc5cccc(F)c54)C[C@@H]3N(C)C)cn(C)c12 (mixture of isomers) [Example 99, rac-3-[(3S,4R)-4-(dimethylamino)-1-(7-fluoro-2,3-dihydro-1H-inden-1-yl)pyrrolidin-3-yl]-N,1-dimethyl-1H-indole-7-carboxamide] | 1.91 nM | 0.303 µM | – |
| CN(C)[C@@H]1CN(C2CCc3cccc(F)c32)C[C@H]1c1ccc(-c2ncco2)cc1 (mixture of isomers) [Example 66, rac-(3S,4R)-1-(7-fluoro-2,3-dihydro-1H-inden-1-yl)-N,N-dimethyl-4-[4-(1,3-oxazol-2-yl)phenyl]pyrrolidin-3-amine] | 2.68 nM | 1.13 µM | – |

Further lines, with some results ahead:

| IC50 (EED) | SMILES | IC50 (Pfeiffer cells; [1]) | IC50 (Pfeiffer cells; Pfeiffer, read-out: Cell Proliferation IC50 (uM)) |
| --- | --- | --- | --- |
| 2.24 nM | CN(C)[C@@H]1CN(C2CCc3cccc(F)c32)C[C@H]1c1ccc(N2CCN(C(=O)C3COC3)CC2)nc1 (mixture of isomers) [Example 151, rac-(4-{5-[(3R,4S)-4-(dimethylamino)-1-(7-fluoro-2,3-dihydro-1H-inden-1-yl)pyrrolidin-3-yl]pyridin-2-yl}piperazin-1-yl)(oxetan-3-yl)methanone] | 0.559 µM | – |
| 1.91 nM | CN(C)[C@H]1CN(C2CCc3cccc(F)c32)C[C@@H]1c1cn(C)c2c(C(=O)N3CCN(c4cccnn4)CC3)cccc12 (mixture of isomers) [Example 137, rac-{3-[(3S,4R)-4-(dimethylamino)-1-(7-fluoro-2,3-dihydro-1H-inden-1-yl)pyrrolidin-3-yl]-1-methyl-1H-indol-7-yl}[4-(pyridazin-3-yl)piperazin-1-yl]methanone] | 0.299 µM | – |
| 2.5 nM | CN(C)[C@H]1CN(C2CCc3cccc(F)c32)C[C@@H]1c1cn(C)c2c(C(=O)N3CCN4CCNC(=O)C4C3)cccc12 (mixture of isomers) [Example 134, rac-8-{3-[(3S,4R)-4-(dimethylamino)-1-(7-fluoro-2,3-dihydro-1H-inden-1-yl)pyrrolidin-3-yl]-1-methyl-1H-indole-7-carbonyl}hexahydro-2H-pyrazino[1,2-a]pyrazin-1(6H)-one] | 0.833 µM | – |
| 3.35 nM | CN(C)[C@H]1CN(C2CCc3cccc(F)c32)C[C@@H]1c1cn(C)c2c(C(=O)N3CC[C@H](O)C3)cccc12 (mixture of isomers) [Example 118, rac-{3-[(3S,4R)-4-(dimethylamino)-1-(7-fluoro-2,3-dihydro-1H-inden-1-yl)pyrrolidin-3-yl]-1-methyl-1H-indol-7-yl}[(3S)-3-hydroxypyrrolidin-1-yl]methanone] | 0.298 µM | – |
| 3.84 nM | CN(C)C(=O)CN1CCN(c2ccc([C@@H]3CN(C4CCc5cccc(F)c54)C[C@H]3N(C)C)cn2)CC1 (mixture of isomers) [Example 147, rac-2-(4-{5-[(3R,4S)-4-(dimethylamino)-1-(7-fluoro-2,3-dihydro-1H-inden-1-yl)pyrrolidin-3-yl]pyridin-2-yl}piperazin-1-yl)-N,N-dimethylacetamide] | 0.535 µM | – |
| 2.01 nM | CN(C)[C@@H]1CN(C2CCc3cccc(F)c32)C[C@H]1c1ccc(-c2cnn(CC(=O)N3CC(F)C3)c2)nc1 (mixture of isomers) [Example 153, rac-2-(4-{5-[(3R,4S)-4-(dimethylamino)-1-(7-fluoro-2,3-dihydro-1H-inden-1-yl)pyrrolidin-3-yl]pyridin-2-yl}-1H-pyrazol-1-yl)-1-(3-fluoroazetidin-1-yl)ethan-1-one] | 0.419 µM | – |
| 1.75 nM | CN(C)C(=O)N1CCN(C(=O)c2cccc3c([C@H]4CN(C5CCc6cccc(F)c65)C[C@@H]4N(C)C)cn(C)c23)CC1 (mixture of isomers) [Example 127, rac-4-{3-[(3S,4R)-4-(dimethylamino)-1-(7-fluoro-2,3-dihydro-1H-inden-1-yl)pyrrolidin-3-yl]-1-methyl-1H-indole-7-carbonyl}-N,N-dimethylpiperazine-1-carboxamide] | 0.335 µM | – |
| 1.77 nM | CN(C)[C@H]1CN(C2CCc3cccc(F)c32)C[C@@H]1c1cn(C)c2c(C(=O)N3CCC[C@H]3CO)cccc12 (mixture of isomers) [Example 116, rac-{3-[(3S,4R)-4-(dimethylamino)-1-(7-fluoro-2,3-dihydro-1H-inden-1-yl)pyrrolidin-3-yl]-1-methyl-1H-indol-7-yl}[(2S)-2-(hydroxymethyl)pyrrolidin-1-yl]methanone] | 0.0996 µM | – |
